This is an account of results in patent publication US20100009970A1, “COMPOSITIONS AND METHODS FOR TREATMENT OF VIRAL DISEASES” (Combinatorx (Singapore) Pte. Ltd., priority 2008, published 2010).

Like-named read-outs stand apart in the source and are kept apart here.

A short description of one data set: in vitro. To be noted: human.
Data set [1] relates to Huh7 cells expressing a subgenomic RNA replicon of Con1 (genotype 1b) sequence origin. Briefly: microbe, parasite or virus in culture. To be noted: Hepatitis C virus; for Emax: Huh-7, read-out: Max Effect@CC30 (inhibition).
[2] abbreviates: Huh-7, read-out: IC50 (uM) [SG].

One may read the IC90 as the concentration needed for an effect of 90%. As a reminder, the IC50 is the concentration that inhibits the measured activity by half. In “in vitro” (CC50 (uM) [SG]), `CN(C1CC1)[C@H]1CC[C@@H](c2ccc(Cl)c(Cl)c2)c2ccccc21` [N-Cyclopropyl Sertraline, (1S,4S)—N-cyclopropyl-4-(3,4-dichlorophenyl)-N-methyl-1,2,3,4-tetrahydronaphthalen-1-amine] gave a CC50 of over 50 µM. It took 34.2 µM to reach the 90% level in data set [1] (Huh-7) (IC90). Besides, in data set [1] (setting [2]), the IC50 was found to be 14.5 µM. In addition, the Emax in data set [1] was 99%.

Regarding `CC(=O)Nc1ccc2c(c1)C(C(C)C)CCC2c1ccc(Cl)c(Cl)c1` (stereo not shown) [N-(5-(3,4-dichlorophenyl)-8-isopropyl-5,6,7,8-tetrahydronaphthalen-2-yl)acetamide], the CC50 in the data set “in vitro” (CC50 (uM) [SG]) was over 50 µM. Moreover, in data set [1] (Huh-7), the IC90 was 37.7 µM. Besides, the 50% inhibitory concentration (IC50) in data set [1] (setting [2]) was 15.8 µM.

`CSc1ccc(Oc2ccc(Br)cc2CN(C)C)cc1` [Compound 41, 1-(5-bromo-2-(4-(methylthio)phenoxy)phenyl)-N,N-dimethylmethanamine] showed a CC50 in the data set “in vitro” (CC50 (uM) [SG]) of over 50 µM. Also, it took 28.8 µM to reach the 90% level in data set [1] (Huh-7) (IC90). Also, the IC50 in data set [1] (setting [2]) is 25.8 µM. For the same compound, the Emax in data set [1] came to 94.7%.

As for `CSc1ccc(Oc2ccc(S(N)(=O)=O)cc2CO)cc1C` [Compound 47, 3-(hydroxymethyl)-4-(3-methyl-4-(methylthio)phenoxy)benzenesulfonamide], the CC50 in “in vitro” (CC50 (uM)) and in the data set “in vitro” (CC50 (uM) [SG]) was over 50 µM throughout. Besides, the IC50 in data set [1] (Huh-7) and in data set [1] (setting [2]) was 18.1 µM each time. In addition, in data set [1], the Emax turned out to be 63.5%.

In the case of `CSc1ccc(Oc2ccc(S(N)(=O)=O)cc2CNCCN(C)C)cc1C` [Compound 96, 3-((2-(dimethylamino)ethylamino)methyl)-4-(3-methyl-4-(methylthio)phenoxy)benzenesulfonamide], the CC50 in the data set “in vitro” (CC50 (uM) [SG]) was 19.4 µM. In data set [1] (Huh-7), this compound yielded a 90% effect concentration (IC90) of 5.89 µM. Moreover, in data set [1] (setting [2]), the IC50 was 2.77 µM.

In turn, `CNCc1cc(Br)ccc1Oc1ccc(SC)c(C)c1` [Compound 31, (5-bromo-2-(3-methyl-4-(methylthio)phenoxy)phenyl)-N-methylmethanamine] had a CC50 in the data set “in vitro” (CC50 (uM) [SG]) of 13.5 µM. Moreover, the concentration for half-maximal inhibition (IC50) in data set [1] (setting [2]) was 7.51 µM. In addition, the Emax in data set [1] came to 18%.

`CCCCS(=O)(=O)Nc1ccc2c(c1)[C@@H](NC)CC[C@H]2c1ccc(Cl)c(Cl)c1` [N-((5S,8S)-5-(3,4-dichlorophenyl)-8-(methylamino)-5,6,7,8-tetrahydronaphthalen-2-yl)butane-1-sulfonamide] returned a CC50 in the data set “in vitro” (CC50 (uM) [SG]) of 3.63 µM. The IC50 in data set [1] (setting [2]) came out at 6.07 µM.

As for `CN(C)[C@H]1CC[C@@H](c2ccc(Cl)c(Cl)c2)c2ccc(C(=O)NCC3CC3)cc21` [(5S,8S)—N-(cyclopropylmethyl)-5-(3,4-dichlorophenyl)-8-(dimethylamino)-5,6,7,8-tetrahydronaphthalene-2-carboxamide], in “in vitro” (CC50 (uM) [SG]), the CC50 is 19.4 µM. The compound also showed an IC90 in data set [1] (Huh-7) of 12.2 µM. In data set [1] (setting [2]), the IC50 came to 5.61 µM.

`CN(C)[C@H]1CC[C@@H](c2ccc(Cl)c(Cl)c2)c2ccc(C(=O)NC3CC3)cc21` [(5S,8S)—N-cyclopropyl-5-(3,4-dichlorophenyl)-8-(dimethylamino)-5,6,7,8-tetrahydronaphthalene-2-carboxamide] showed a CC50 in “in vitro” (CC50 (uM) [SG]) of 25.4 µM. Further, in data set [1] (setting [2]), the IC50 came to 7.3 µM.

For `CSc1ccc(Oc2ccc(S(N)(=O)=O)cc2CNC[C@@H](C)O)cc1C` [Compound 68, (R)-3-((2-hydroxypropylamino)methyl)-4-(3-methyl-4-(methylthio)phenoxy)benzenesulfonamide], the CC50 in the data set “in vitro” (CC50 (uM) [SG]) is over 50 µM. In data set [1] (Huh-7), this compound showed a concentration for an effect of 90% (IC90) of 15.3 µM. The IC50 in data set [1] (setting [2]) worked out at 4.34 µM.

On to `CC(C)C1=CC[C@@H](c2ccc(Cl)c(Cl)c2)c2ccc(C(N)=O)cc21` [(S)-5-(3,4-dichlorophenyl)-8-isopropyl-5,6-dihydronaphthalene-2-carboxamide], for which the CC50 in “in vitro” (CC50 (uM) [SG]) was over 50 µM. Further, in data set [1] (setting [2]), the IC50 came to 21.5 µM.

Turning to `CSc1ccc(Oc2ccc(S(N)(=O)=O)cc2CN2CCN(c3ccc(Cl)cc3)CC2)cc1C` [Compound 92, 3-((4-(4-chlorophenyl)piperazin-1-yl)methyl)-4-(3-methyl-4-(methylthio)phenoxy)benzenesulfonamide], the CC50 in the data set “in vitro” (CC50 (uM) [SG]) came out at 44.4 µM. The IC50 in data set [1] (setting [2]) is 30 µM.

In turn, `CN[C@H]1CC[C@@H](c2ccc(Cl)c(Cl)c2)c2ccc(CSC)cc21` [Sertraline A-Ring Methylsulfide, (1S,4S)-4-(3,4-dichlorophenyl)-N-methyl-7-(methylthiomethyl)-1,2,3,4-tetrahydronaphthalen-1-amine] had a CC50 in “in vitro” (CC50 (uM) [SG]) of 6.18 µM. Further, the IC50 in data set [1] (setting [2]) was 4.18 µM. In data set [1], the Emax is 14.8%.

As to `CSc1ccc(Oc2ccc(S(N)(=O)=O)cc2CN2CC[C@H](N(C)C)C2)cc1C` [Compound 88, (S)-3-((3-(dimethylamino)pyrrolidin-1-yl)methyl)-4-(3-methyl-4-(methylthio)phenoxy)benzenesulfonamide], in “in vitro” (CC50 (uM) [SG]), the CC50 was found to be 39.4 µM. Also, the IC90 in data set [1] (Huh-7) came to 13.2 µM. Further, the IC50 in data set [1] (setting [2]) was determined as 4.15 µM.

In turn, `CCCCNS(=O)(=O)c1ccc(Oc2ccc(SC)c(C)c2)c(CN(C)C)c1` [Compound 12, N-butyl-3-((dimethylamino)methyl)-4-(3-methyl-4-(methylthio)phenoxy)benzenesulfonamide] yielded a CC50 in the data set “in vitro” (CC50 (uM) [SG]) of 18.4 µM. Besides, the IC50 in data set [1] (setting [2]) came out at 13.4 µM.

On to `CN[C@H]1CC[C@@H](c2ccc(Cl)c(Cl)c2)c2ccc(NS(=O)(=O)c3ccccc3)cc21` [N-((5S,8S)-5-(3,4-dichlorophenyl)-8-(methylamino)-5,6,7,8-tetrahydronaphthalen-2-yl)benzenesulfonamide], for which the CC50 in the data set “in vitro” (CC50 (uM)) and in the data set “in vitro” (CC50 (uM) [SG]) was 3.91 µM each time. The IC50 in data set [1] (Huh-7) and in data set [1] (setting [2]) was 3.48 µM throughout. For the same compound, in data set [1] (Huh-7), the concentration for an effect of 90% (IC90) was 3.83 µM.

With `O=C1CC[C@@H](c2ccc(Cl)c(Cl)c2)c2ccccc21` [4S-Sertraline Ketone, (S)-4-(3,4-dichlorophenyl)-3,4-dihydronaphthalen-1(2H)-one], the CC50 in the data set “in vitro” (CC50 (uM) [SG]) is over 50 µM. The IC50 in data set [1] (setting [2]) came out at 32.6 µM. Besides, the Emax in data set [1] amounted to 77%.

The compound `CSc1ccc(Oc2ccc(S(N)(=O)=O)cc2CN2CCC[C@H]2CO)cc1C` [Compound 103, (S)-3-((2-(hydroxymethyl)pyrrolidin-1-yl)methyl)-4-(3-methyl-4-(methylthio)phenoxy)benzenesulfonamide] displayed a CC50 in “in vitro” (CC50 (uM) [SG]) of over 50 µM. The same compound had a 90% effect concentration (IC90) in data set [1] (Huh-7) of 17.6 µM. Besides, the concentration for half-maximal inhibition (IC50) in data set [1] (setting [2]) came to 6.88 µM.

Take `CSc1ccc(Oc2ccc(S(=O)(=O)NCc3ccccc3)cc2CN(C)C)cc1C` [Compound 14, N-benzyl-3-((dimethylamino)methyl)-4-(3-methyl-4-(methylthio)phenoxy)benzenesulfonamide]: the CC50 in “in vitro” (CC50 (uM) [SG]) stood at 16.9 µM. In addition, the half-maximal inhibitory concentration (IC50) in data set [1] (setting [2]) stood at 11.4 µM. Besides, in data set [1], the Emax is 59%.

In the data set “in vitro” (CC50 (uM) [SG]), `CSc1ccc(Oc2ccc(S(N)(=O)=O)cc2N)cc1C` [Compound 58, 3-amino-4-(3-methyl-4-(methylthio)phenoxy)benzenesulfonamide] came in with a CC50 of over 50 µM. Moreover, the half-maximal inhibitory concentration (IC50) in data set [1] (setting [2]) stood at 15.3 µM.

In “in vitro” (CC50 (uM) [SG]), `COc1ccc(NS(=O)(=O)c2ccc(Oc3ccc(SC)c(C)c3)c(CN(C)C)c2)cc1` [Compound 59, 3-((dimethylamino)methyl)-N-(4-methoxyphenyl)-4-(3-methyl-4-(methylthio)phenoxy)benzenesulfonamide] yielded a CC50 of 8.32 µM. The IC50 in data set [1] (setting [2]) came to 6.39 µM.

`CSc1ccc(Oc2cc(Br)ccc2CN(C)C)cc1C` [Compound 60, 1-(4-bromo-2-(3-methyl-4-(methylthio)phenoxy)phenyl)-N,N-dimethylmethanamine]: the CC50 in the data set “in vitro” (CC50 (uM) [SG]) was found to be 28.7 µM. The half-maximal inhibitory concentration (IC50) in data set [1] (setting [2]) worked out at 12.6 µM.
